Key:
prostate cancer lesions = assay: Phase 2 PET/CT imaging: CLR, CDR and per patient sensitivity/specificity vs Composite Reference Standard, 3 blinded readers; type: in vivo, human; conditions: for Average Patient CDR: Average Correct Detection Rate (Standard Deviation) / Correct Localization Rate, region level / Number of Lesions Correctly Identified: IME Population; for Average Patient CDR: Average Correct Detection Rate (Standard Deviation) / Correct Localization Rate, region level: Phase 2; for Correct Localization Rate (region level CLR) / Number of Segments Correctly Identified / Pa Patient Specificity: Correct Patient Detection Rate / Pet Patient Sensitivity: Correct Patient Detection Rate: ITI Population; for Correct Localization Rate (region level CLR): 7-9 mCi; for Number of Lesions Correctly Identified: of 30 lesions truth; for Number of Segments Correctly Identified: of 30 segments truth
Method: A study was conducted to evaluate the use of Cu-64 PSMA I&T injection in imaging human patients with recurrent metastatic prostate cancer. The primary objectives were to determine efficacy on region and patient level and to assess safety for use with humans. The secondary objective was to assess image quality or AIQ using CLR and CDR. The study had two co-primary endpoints. First, region-level CLR defined as the percentage of regions containing at least one true PET positive lesion, with exactly localized correspondence between PET/CT imaging and the Composite Reference Standard regardless of any co-existent false positive findings, within the same region, out of all regions containing at least one PET positive finding. Second, patient-level CDR defined as the percentage of patients who have at least one true PET positive lesion, with exactly localized correspondence between PET imaging and the Composite Reference Standard, regardless of any co-existent false positive findings, out of all patients who are scanned. Both endpoints were measured for 1 and 4 hours post injection using PET scans. The study was powered to detect a CLR (detection rate) of greater than 60%. A sample size of 26 patients has an 80% power of detecting a true sensitivity of 85%. Key inclusion criteria included histologically proven prostate adenocarcinoma, prior radical prostatectomy, radiation therapy with curative intent, disease recurrence based on defined rise in PSA, and at least one extra prostatic site of disease suspected based on prior imaging or diagnosed by biopsy. Patients were administered 7-9 mCi Cu-64 PSMA I&T injection and then PET and/or CT images were acquired for all patients starting at approximately […] and 4 hours±30 minutes post Cu-64 PSMA I&T injection. Indeed, the images were collected from an approximate range of 45 minutes to 4 hours and 30 minutes post injection for all patients. The PET and CT images were interpreted independently by three readers blinded to all patient information. Each patient study was assessed and scored for the detection of prostate cancer. Specifically, each reader categorized images as “Disease” or “No Disease” based only on tumor uptake of Cu-64 PSMA-I&T in each of the five regions: (1) prostate bed or prostate gland, (2) lymph nodes (pelvic), (3) lymph nodes (extra pelvic), (4) bone, and (5) viscera/soft tissue. Analysis of the reads were used for determination of the CLR and CDR by comparison to the Composite Reference Standard. The Composite Reference Standard was defined as local histopathology obtained within 60 days before or following Cu-64 PSMA I&T PET/CT, or, if histopathology was not available, anatomical correlation of conventional image findings (e.g., targeted MRI or CT or any FDA-approved PET PSMA agent) obtained within 60 days before or following Cu-64 PSMA I&T PET/CT. A statistical threshold (with a lower bound of the 95% confidence interval) of 60% was prespecified for both CLR and CDR endpoints. The Phase 2 portion of the study included a separate group of 26 patients with biochemical recurrent PC. The dose for the Phase 2 portion of the study was 9 mCi with an acceptable range of 7 to 9 mCi. PET/CT images were acquired for all patients at 1 hour (±15 minutes) and 4 hours (±0.5 hours) post injection. The PET/CT images were interpreted independently by 3 readers blinded to all patient information. Each patient was assessed and scored for the detection of prostate cancer lesions. Specifically, each reader categorized images as “Disease” or “No Disease” based only on tumor uptake of copper Cu-64 PSMA I&T in each of 5 regions: (1) prostate bed or prostate gland, (2) lymph nodes (pelvic), (3) lymph nodes (extra pelvic), (4) bone, and (5) viscera/soft tissue. Analysis of the reads was used for determination of the CLR and CDR for 1 hour and 4 hours post-injection imaging of copper Cu-64 PSMA I&T PET/CT by comparison to a composite reference standard collected for each enrolled patient. […]

[1] = Phase 2 diagnostic image quality, 3-point scale, independent readers; type: in vivo, human
Method: Diagnostic quality was assessed for all scans using a 3-point scale and then percentages for each category were summarized for each reader and time point. No formal hypothesis testing was performed.

[2] = all 3 readers at both 1 and 4 hours

Question: With O=C(O)CC[C@H](NC(=O)N[C@@H](CCCCNC(=O)CCCCCCC(=O)NCCCC[C@@H](NC(=O)[C@@H](Cc1ccccc1)NC(=O)[C@@H](Cc1ccc(O)c(I)c1)NC(=O)CC[C@H](C(=O)O)N1CCN(CC(=O)O)CCN(CC(=O)O)CCN(CC(=O)O)CC1)C(=O)O)C(=O)O)C(=O)O [Cu-64 PSMA I&T, 64 Cu-(3S, 7S, 26R, 29R, 32R, 37R)-29-benzyl-32(4-hydroxy-3-iodobenzyl)-5, 13, 20, 28, 31, 34-hexaoxo-37-(4,7,10-tris(carboxymethyl)-1,4,7, 10-tetraazacyclododecan-1-yl)-4,6, 12, 21, 27, 30, 33-heptaazaheptatriacontane-1,3,7, 26, 37-pentacarboxylic acid, metal not drawn] as the compound, how does the “Average Patient CDR: Average Correct Detection Rate (Standard Deviation)” value (“Average Patient CDR … (Standard Deviation)” for short) (prostate cancer lesions; READER 1, 1 Hour Image) read?
Answer: 84.21% (33.552%)

Question: What about the “Correct Localization Rate, region level” value (prostate cancer lesions; READER 1, 1 Hour Image) of the same compound?
Answer: 86.67%

Question: And the “Correct Localization Rate (region level CLR)” value (prostate cancer lesions; READER 1, 1 Hour Image)?
Answer: 86.67%

Question: What about the “Number of Lesions Correctly Identified” value (prostate cancer lesions; READER 1, 1 Hour Image) of the same compound?
Answer: 26

Question: And the “Number of Segments Correctly Identified” value (prostate cancer lesions; READER 1, 1 Hour Image)?
Answer: 26

Question: What about the “Pa Patient Specificity: Correct Patient Detection Rate” value (from here on “Pa Patient Specificity”) (prostate cancer lesions; READER 1, 1 Hour image) of the same compound?
Answer: 100.00%

Question: And the “Pet Patient Sensitivity: Correct Patient Detection Rate” value (“Pet Patient Sensitivity” for short) (prostate cancer lesions; READER 1, 1 Hour image)?
Answer: 100.00%

Question: And the “Average Patient CDR … (Standard Deviation)” value (prostate cancer lesions; READER 1, 4 Hour Image)?
Answer: 84.21% (33.552%)

Question: And the “Correct Localization Rate, region level” value (prostate cancer lesions; READER 1, 4 Hour Image)?
Answer: 86.67%

Question: And the “Pa Patient Specificity” value (prostate cancer lesions; READER 1, 4 Hour Image)?
Answer: 100.00%

Question: What about the “Pet Patient Sensitivity” value (prostate cancer lesions; READER 1, 4 Hour Image) of the same compound?
Answer: 100.00%

Question: What about the “Correct Localization Rate (region level CLR)” value (prostate cancer lesions; READER 1, 4 Hour Image) of the same compound?
Answer: 86.67%

Question: What about the “Number of Lesions Correctly Identified” value (prostate cancer lesions; READER 1, 4 Hour Image) of the same compound?
Answer: 26

Question: And the “Number of Segments Correctly Identified” value (prostate cancer lesions; READER 1, 4 Hour Image)?
Answer: 26

Question: What about the “Average Patient CDR … (Standard Deviation)” value (prostate cancer lesions; READER 2, 1 Hour Image) of the same compound?
Answer: 77.19% (38.172%)

Question: What about the Correct Localization Rate, region level (prostate cancer lesions; READER 2, 1 Hour Image) of the same compound?
Answer: 76.7%

Question: What about the “Pa Patient Specificity” value (prostate cancer lesions; READER 2, 1 Hour Image) of the same compound?
Answer: 100.00%

Question: And the “Pet Patient Sensitivity” value (prostate cancer lesions; READER 2, 1 Hour Image)?
Answer: 100.00%

Question: And the “Correct Localization Rate (region level CLR)” value (prostate cancer lesions; READER 2, 1 Hour Image)?
Answer: 76.67%

Question: What about the “Number of Lesions Correctly Identified” value (prostate cancer lesions; READER 2, 1 Hour Image) of the same compound?
Answer: 23

Question: And the “Number of Segments Correctly Identified” value (prostate cancer lesions; READER 2, 1 Hour Image)?
Answer: 26

Question: And the “Average Patient CDR … (Standard Deviation)” value (prostate cancer lesions; READER 2, 4 Hour Image)?
Answer: 79.82% (37.916%)

Question: And the “Correct Localization Rate, region level” value (prostate cancer lesions; READER 2, 4 Hour Image)?
Answer: 80.00%

Question: What about the “Pa Patient Specificity” value (prostate cancer lesions; READER 2, 4 Hour Image) of the same compound?
Answer: 100.00%

Question: What about the “Pet Patient Sensitivity” value (prostate cancer lesions; READER 2, 4 Hour Image) of the same compound?
Answer: 100.00%

Question: What about the “Correct Localization Rate (region level CLR)” value (prostate cancer lesions; READER 2, 4 Hour Image) of the same compound?
Answer: 80.00%

Question: What about the “Number of Lesions Correctly Identified” value (prostate cancer lesions; READER 2, 4 Hour Image) of the same compound?
Answer: 24

Question: What about the “Number of Segments Correctly Identified” value (prostate cancer lesions; READER 2, 4 Hour Image) of the same compound?
Answer: 24

Question: What about the “Average Patient CDR … (Standard Deviation)” value (prostate cancer lesions; READER 3, 1 Hour Image) of the same compound?
Answer: 80.70% (35.252%)

Question: What about the “Correct Localization Rate, region level” value (prostate cancer lesions; READER 3, 1 Hour Image) of the same compound?
Answer: 80.110%

Question: And the “Pa Patient Specificity” value (prostate cancer lesions; READER 3, 1 Hour Image)?
Answer: 100.00%

Question: And the “Pet Patient Sensitivity” value (prostate cancer lesions; READER 3, 1 Hour Image)?
Answer: 100.00%

Question: And the “Correct Localization Rate (region level CLR)” value (prostate cancer lesions; READER 3, 1 Hour Image)?
Answer: 80.00%

Question: What about the “Number of Lesions Correctly Identified” value (prostate cancer lesions; READER 3, 1 Hour Image) of the same compound?
Answer: 24

Question: And the “Number of Segments Correctly Identified” value (prostate cancer lesions; READER 3, 1 Hour Image)?
Answer: 24

Question: And the “Average Patient CDR … (Standard Deviation)” value (prostate cancer lesions; READER 3, 4 Hour Image)?
Answer: 80.70% (35.252%)

Question: What about the “Correct Localization Rate, region level” value (prostate cancer lesions; READER 3, 4 Hour Image) of the same compound?
Answer: 80.00%

Question: What about the Pa Patient Specificity: Correct Patient Detection Rate (prostate cancer lesions; READER 3, 4 Hour Image) of the same compound?
Answer: 100%

Question: What about the “Pet Patient Sensitivity” value (prostate cancer lesions; READER 3, 4 Hour Image) of the same compound?
Answer: 100.00%

Question: What about the “Correct Localization Rate (region level CLR)” value (prostate cancer lesions; READER 3, 4 Hour Image) of the same compound?
Answer: 80.00%

Question: And the “Number of Lesions Correctly Identified” value (prostate cancer lesions; READER 3, 4 Hour Image)?
Answer: 24

Question: What about the “Number of Segments Correctly Identified” value (prostate cancer lesions; READER 3, 4 Hour Image) of the same compound?
Answer: 24

Question: What about the “patient level CDR vs prespecified threshold” value (prostate cancer lesions; [2]) of the same compound?
Answer: > 60%

Question: What about the “region level CLR vs prespecified threshold” value (prostate cancer lesions; [2]) of the same compound?
Answer: > 60%

Question: And the “correct patient detection rate (per patient sensitivity and specificity)” value (prostate cancer lesions; all patients, both 1 and 4 hour images)?
Answer: 100.00%

Question: And the “patients with no lesions detected on the PET/CT scan” value (prostate cancer lesions; of 26 patients)?
Answer: 7

Question: What about the “patients with positive lesions on the PET/CT scan” value (prostate cancer lesions; of 26 patients) of the same compound?
Answer: 19

Question: What about the “Image Quality Acceptable, patients (%)” value ([1]; Reader 1, 1 Hour Post Dose) of the same compound?
Answer: 26 (100.00%)

Question: And the “Image Quality Acceptable, patients (%)” value ([1]; Reader 1, 4 Hours Post Dose)?
Answer: 26 (100.00%)

Question: What about the “Image Quality Acceptable, patients (%)” value ([1]; Reader 2, 1 Hour Post Dose) of the same compound?
Answer: 24 (92.31%)

Question: What about the “Image Quality Acceptable, patients (%)” value ([1]; Reader 2, 4 Hours Post Dose) of the same compound?
Answer: 26 (100.00%)

Question: And the “Image Quality Acceptable, patients (%)” value ([1]; Reader 3, 1 Hour Post Dose)?
Answer: 26 (100.00%)

Question: And the “Image Quality Acceptable, patients (%)” value ([1]; Reader 3, 4 Hours Post Dose)?
Answer: 26 (100.00%)

Question: What about the “image quality as assessed by the independent readers” value ([1]; at both 1 and 4 hours) of the same compound?
Answer: acceptable
